Source: DBAASP
Values after ≈ are worked out from the molar mass of the structure shown.

Experiments:
Test in all cases: ≥ marks a high value that may be exact or a test limit, other limits are often not marked, values filed in µg/mL are converted to µM
[1] = tested on: Bacillus cereus AS1.126
[2] = tested on: Candida albicans CMCC 98001
[3] = tested on: Enterobacter cloacae CGMCC 1.58
[4] = tested on: Enterococcus faecalis CGMCC 1.595
[5] = tested on: Enterococcus faecium CGMCC 1.2334
[6] = tested on: Escherichia coli AS1.349
[7] = tested on: Fusobacterium nucleatum CGMCC 1.2526
[8] = tested on: Klebsiella aerogenes CGMCC 1.876
[9] = tested on: Klebsiella pneumoniae subsp. pneumoniae CGMCC 1.176
[10] = tested on: Lactobacillus acidophilus CGMCC 1.1854
[11] = tested on: Lactococcus lactis AS1.1690
[12] = tested on: Pseudomonas aeruginosa CGMCC 1.860
[13] = tested on: Staphylococcus aureus AS1.72
[14] = tested on: Streptococcus mutans CGMCC 1.2500
[15] = tested on: Streptococcus salivarius CGMCC 1.2498
[16] = tested on: Streptococcus sanguinis CGMCC 1.2497
[17] = tested on: Escherichia coli
[18] = tested on: Listeria monocytogenes
[19] = tested on: Salmonella enterica subsp. enterica serovar Paratyphi A
[20] = tested on: Staphylococcus aureus 007
[21] = tested on: Staphylococcus aureus A170
[22] = tested on: Staphylococcus aureus A172
[23] = tested on: Staphylococcus epidermidis
[24] = tested on: Staphylococcus aureus ATCC 25023
[25] = tested on: Acinetobacter baumannii CICC 22934
[26] = tested on: Proteus mirabilis CICC 22931
[27] = tested on: Cronobacter sakazakii DPC 6440
[28] = tested on: Listeria monocytogenes LO28

Row | MIC [1] [µM] | MIC [3] [µM] | MIC [4] [µM] | MIC [5] [µM] | MIC [6] [µM] | MIC [8] [µM] | MIC [9] [µM] | MIC [11] [µM] | MIC [12] [µM] | MIC [13] [µM] | also measured | SMILES
1 | 3.12 (≈ 4.4 µg/mL) | 3.12 (≈ 4.4 µg/mL) | 6.25 (≈ 8.81 µg/mL) | 6.25 (≈ 8.81 µg/mL) | 3.12 (≈ 4.4 µg/mL) | 3.12 (≈ 4.4 µg/mL) | 6.25 (≈ 8.81 µg/mL) | 3.12 (≈ 4.4 µg/mL) | 3.12 (≈ 4.4 µg/mL) | 3.12 (≈ 4.4 µg/mL) | MIC [2]: 12.5 µM (≈ 17.6 µg/mL); MIC [7]: 18.8 µM (≈ 26.4 µg/mL); MIC [10]: 25 µM (≈ 35.2 µg/mL); MIC [14]: 12.5 µM (≈ 17.6 µg/mL); MIC [15]: 6.25 µM (≈ 8.81 µg/mL); MIC [16]: 3.13 µM (≈ 4.41 µg/mL) | CC[C@H](C)[C@H](N)C(=O)N[C@@H](CCCCN)C(=O)N[C@@H](CCCCN)C(=O)N[C@H](C(=O)N[C@H](C(=O)N[C@@H](CO)C(=O)N[C@@H](CCCCN)C(=O)N[C@H](C(=O)N[C@@H](CCCCN)C(=O)N[C@@H](CCCCN)C(=O)N[C@@H](CC(C)C)C(=O)N[C@@H](CC(C)C)C(N)=O)[C@@H](C)CC)C(C)C)[C@@H](C)CC [IKKIVSKIKKLL]
2 | – | – | – | – | – | – | – | – | – | – | MIC [17]: 11 µM (≈ 20 µg/mL); MIC [18]: 5.52 µM (≈ 9.99 µg/mL); MIC [19]: 11 µM (≈ 20 µg/mL); MIC [20]: 5.52 µM (≈ 9.99 µg/mL); MIC [21]: 11 µM (≈ 20 µg/mL); MIC [22]: 13.8 µM (≈ 25 µg/mL); MIC [23]: 3.86 µM (≈ 7 µg/mL) | CC[C@H](C)[C@H](NC(=O)[C@@H]1CCCN1C(=O)[C@H](CC(C)C)NC(=O)[C@H](CC(C)C)NC(=O)[C@H](Cc1ccc(O)cc1)NC(=O)[C@H](CCCCN)NC(=O)[C@@H](N)CCCCN)C(=O)N[C@H](C(=O)NCC(=O)N[C@@H](CC(N)=O)C(=O)N[C@@H](CC(C)C)C(=O)N[C@@H](CC(C)C)C(=O)N[C@@H](CCCCN)C(=O)N[C@@H](CO)C(=O)N[C@@H](CC(C)C)C(=O)N[C@@H](CC(C)C)C(N)=O)C(C)C [KKYLLPIVGNLLKSLL]
3 | – | – | – | – | – | – | – | – | – | – | MIC [24]: ≥ 125 µM | CC(C)C[C@H](NC(=O)[C@H](CCCN=C(N)N)NC(=O)[C@H](CC(C)C)NC(=O)[C@H](CC(C)C)NC(=O)[C@H](CC(C)C)NC(=O)[C@H](CCCCN)NC(=O)[C@H](CC(C)C)NC(=O)[C@@H](N)CCCN=C(N)N)C(N)=O [RLKLLLRL]
4 | 6.25 (≈ 13.8 µg/mL) | ≥ 100 | 12.5 (≈ 27.6 µg/mL) | 12.5 (≈ 27.6 µg/mL) | ≥ 100 | ≥ 100 | ≥ 100 | 18.8 (≈ 41.5 µg/mL) | ≥ 100 | 9.38 (≈ 20.7 µg/mL) | MIC [25]: ≥ 100 µM; MIC [26]: ≥ 100 µM | CC(C)C[C@H](NC(=O)CNC(=O)[C@H](Cc1ccccc1)NC(=O)[C@H](CCCN=C(N)N)NC(=O)[C@H](CCCN=C(N)N)NC(=O)[C@H](CC(C)C)NC(=O)[C@H](Cc1cnc[nH]1)NC(=O)[C@H](CCCN=C(N)N)NC(=O)CNC(=O)[C@@H](NC(=O)[C@H](C)NC(=O)[C@@H](N)CO)C(C)C)C(=O)N[C@@H](CCCN=C(N)N)C(=O)N[C@@H](CCCCN)C(=O)N[C@@H](Cc1cnc[nH]1)C(=O)N[C@@H](CCCN=C(N)N)C(=O)N[C@@H](CCCCN)C(=O)N[C@@H](Cc1cnc[nH]1)C(=O)O [SAVGRHLRRFGLRKHRKH]
5 | – | – | – | – | – | – | – | – | – | – | MIC [27]: ≥ 156 µM; MIC [28]: ≥ 39.1 µM | CC[C@H](C)[C@H](NC(=O)[C@@H](N)Cc1c[nH]c2ccccc12)C(=O)N[C@@H](CCC(N)=O)C(=O)N1CCC[C@H]1C(=O)N[C@@H](C)C(=O)N[C@H](C(=O)N[C@@H](CCCCN)C(=O)N[C@H](C(=O)N[C@H](C(=O)N1CCC[C@H]1C(=O)N[C@@H](Cc1ccc(O)cc1)C(=O)N[C@H](C(=O)N[C@@H](CCCN=C(N)N)C(=O)N[C@@H](Cc1ccc(O)cc1)C(=O)N[C@@H](CC(C)C)C(=O)O)C(C)C)[C@@H](C)CC)C(C)C)[C@@H](C)O [WIQPATKVIPYVRYL]
